Columns and labels:
[1] = tested on: patients with major depressive disorders; settings: cited from earlier work
[2] = tested on: adult subjects with treatment-resistant depression (TRD); assay: Brief Psychiatric Rating Scale (BPRS) total score, same clinical study; settings: 0.40 mg/kg
[3] = tested on: adult subjects with treatment-resistant depression (TRD); assay: Clinician-Assessed Dissociative Symptom Scale (CADSS) total score, same clinical study
[4] = 0.20 mg/kg, Day 1 (4 Hour), baseline Day 1
[5] = 0.20 mg/kg, Day 1 (40 Min), baseline Day 1
[6] = 0.20 mg/kg, Day 2, baseline Day 1
[7] = 0.20 mg/kg, Day 4 (4 Hour), baseline Day 4
[8] = 0.20 mg/kg, Day 4 (40 Min), baseline Day 4
[9] = 0.20 mg/kg, Day 5, baseline Day 4
[10] = 0.40 mg/kg, Day 1 (4 Hour), baseline Day 1
[11] = 0.40 mg/kg, Day 1 (40 Min), baseline Day 1
[12] = 0.40 mg/kg, Day 2, baseline Day 1
[13] = 0.40 mg/kg, Day 4 (4 Hour), baseline Day 4
[14] = 0.40 mg/kg, Day 4 (40 Min), baseline Day 4
[15] = 0.40 mg/kg, Day 5, baseline Day 4

CNC1(c2ccccc2Cl)CCCCC1=O (racemic) [ketamine]
Onset of rapid antidepressant effect [1]: within two hours

CN[C@]1(c2ccccc2Cl)CCCCC1=O.Cl [Esketamine, (S)-2-(2-chlorophenyl)-2-(methylamino)cyclohexanone hydrochloride]
BPRS total score, Mean (SE) ([2]; Day 1 (4 Hour)): 0.00 (0.000)
BPRS total score, Mean (SE) ([2]; Day 1 (15 Min.)): 1.91 (0.625)
BPRS total score, Mean (SE) ([2]; Day 1 (30 Min.)): 3.10 (0.960)
BPRS total score, Mean (SE) ([2]; Day 1 (40 Min.)): 4.33 (1.323)
BPRS total score, Mean (SE) ([2]; Day 1 (Predose)): 0.09 (0.091)
BPRS total score, Mean (SE) ([2]; Day 2): 0.00 (0.000)
BPRS total score, Mean (SE) ([2]; Day 4 (2 Hour)): 0.43 (0.335)
BPRS total score, Mean (SE) ([2]; Day 4 (4 Hour)): 0.29 (0.286)
BPRS total score, Mean (SE) ([2]; Day 4 (15 Min.)): 1.90 (0.668)
BPRS total score, Mean (SE) ([2]; Day 4 (30 Min.)): 3.32 (1.192)
BPRS total score, Mean (SE) ([2]; Day 4 (40 Min.)): 3.16 (1.248)
BPRS total score, Mean (SE) ([2]; Day 4 (Predose)): 0.05 (0.048)
BPRS total score, Mean (SE) ([2]; Day 5): 0.00 (0.000)
CADSS total score, Mean (SD) ([3]; 0.20 mg/kg, Day 1 (4 Hour)): 0.00 (0.000)
CADSS total score, Median ([3]; 0.20 mg/kg, Day 1 (4 Hour)): 0.00
CADSS total score change from baseline, Mean (SD) [3, 4]: 0.00 (0.000)
CADSS total score change from baseline, Median [3, 4]: 0.00
CADSS total score, Mean (SD) ([3]; 0.20 mg/kg, Day 1 (40 Min)): 15.56 (24.653)
CADSS total score, Median ([3]; 0.20 mg/kg, Day 1 (40 Min)): 4.00
CADSS total score change from baseline, Mean (SD) [3, 5]: 15.56 (24.653)
CADSS total score change from baseline, Median [3, 5]: 4.00
CADSS total score, Mean (SD) ([3]; 0.20 mg/kg, Day 1 (Predose)): 0.00 (0.000)
CADSS total score, Median ([3]; 0.20 mg/kg, Day 1 (Predose)): 0.00
CADSS total score, Mean (SD) ([3]; 0.20 mg/kg, Day 2): 0.22 (0.667)
CADSS total score, Median ([3]; 0.20 mg/kg, Day 2): 0.00
CADSS total score change from baseline, Mean (SD) [3, 6]: 0.22 (0.667)
CADSS total score change from baseline, Median [3, 6]: 0.00
CADSS total score, Mean (SD) ([3]; 0.20 mg/kg, Day 4 (4 Hour)): 0.22 (0.667)
CADSS total score, Median ([3]; 0.20 mg/kg, Day 4 (4 Hour)): 0.00
CADSS total score change from baseline, Mean (SD) [3, 7]: 0.22 (0.667)
CADSS total score change from baseline, Median [3, 7]: 0.00
CADSS total score, Mean (SD) ([3]; 0.20 mg/kg, Day 4 (40 Min)): 6.38 (7.963)
CADSS total score, Median ([3]; 0.20 mg/kg, Day 4 (40 Min)): 4.00
CADSS total score change from baseline, Mean (SD) [3, 8]: 6.38 (7.963)
CADSS total score change from baseline, Median [3, 8]: 4.00
CADSS total score, Mean (SD) ([3]; 0.20 mg/kg, Day 4 (Predose)): 0.00 (0.000)
CADSS total score, Median ([3]; 0.20 mg/kg, Day 4 (Predose)): 0.00
CADSS total score, Mean (SD) ([3]; 0.20 mg/kg, Day 5): 0.11 (0.333)
CADSS total score, Median ([3]; 0.20 mg/kg, Day 5): 0.00
CADSS total score change from baseline, Mean (SD) [3, 9]: 0.11 (0.333)
CADSS total score change from baseline, Median [3, 9]: 0.00
CADSS total score, Mean (SD) ([3]; 0.40 mg/kg, Day 1 (4 Hour)): 0.36 (1.206)
CADSS total score, Median ([3]; 0.40 mg/kg, Day 1 (4 Hour)): 0.00
CADSS total score change from baseline, Mean (SD) [3, 10]: −0.55 (1.036)
CADSS total score change from baseline, Median [3, 10]: 0.00
CADSS total score, Mean (SD) ([3]; 0.40 mg/kg, Day 1 (40 Min)): 22.00 (9.192)
CADSS total score, Median ([3]; 0.40 mg/kg, Day 1 (40 Min)): 23.00
CADSS total score change from baseline, Mean (SD) [3, 11]: 21.56 (9.645)
CADSS total score change from baseline, Median [3, 11]: 23.00
CADSS total score, Mean (SD) ([3]; 0.40 mg/kg, Day 1 (Predose)): 0.91 (1.921)
CADSS total score, Median ([3]; 0.40 mg/kg, Day 1 (Predose)): 0.00
CADSS total score, Mean (SD) ([3]; 0.40 mg/kg, Day 2): 0.73 (1.849)
CADSS total score, Median ([3]; 0.40 mg/kg, Day 2): 0.00
CADSS total score change from baseline, Mean (SD) [3, 12]: −0.18 (1.168)
CADSS total score change from baseline, Median [3, 12]: 0.00
CADSS total score, Mean (SD) ([3]; 0.40 mg/kg, Day 4 (4 Hour)): 3.21 (8.929)
CADSS total score, Median ([3]; 0.40 mg/kg, Day 4 (4 Hour)): 0.00
CADSS total score change from baseline, Mean (SD) [3, 13]: 3.16 (8.808)
CADSS total score change from baseline, Median [3, 13]: 0.00
CADSS total score, Mean (SD) ([3]; 0.40 mg/kg, Day 4 (40 Min)): 15.67 (13.932)
CADSS total score, Median ([3]; 0.40 mg/kg, Day 4 (40 Min)): 10.00
CADSS total score change from baseline, Mean (SD) [3, 14]: 15.67 (13.932)
CADSS total score change from baseline, Median [3, 14]: 10.00
CADSS total score, Mean (SD) ([3]; 0.40 mg/kg, Day 4 (Predose)): 0.19 (0.680)
CADSS total score, Median ([3]; 0.40 mg/kg, Day 4 (Predose)): 0.00
CADSS total score, Mean (SD) ([3]; 0.40 mg/kg, Day 5): 0.25 (0.550)
CADSS total score, Median ([3]; 0.40 mg/kg, Day 5): 0.00
CADSS total score change from baseline, Mean (SD) [3, 15]: 0.05 (0.759)
CADSS total score change from baseline, Median [3, 15]: 0.00
Time at which maximum mean overall BPRS and CADSS scores (CNS side effects) were observed ([3]; corresponding to the end of the infusion): 40 min
Time point at which BPRS and CADSS scores returned back to baseline values ([3]; postdose, after the start of infusion): 4 h
